Data as given in publication PMC10810264 (Microchemical journal : devoted to the application of …, 2023).
≈ marks a conversion by molar mass, not a printed value.

These compounds were tested on anti-GEN scFv-AP fusion protein (assay: direct competitive chemiluminescent enzyme immunoassay). Details: dcCLEIA; CR=[IC50(gentamicin)/IC50(analyte)]×100%.
Assay type: binding, murine

Cross-reactivity | Compound
<0.10% | CC1(C)S[C@@H]2[C@H](NC(=O)[C@H](N)c3ccccc3)C(=O)N2[C@H]1C(=O)O [Ampicillin]
<0.10% | O=C(N[C@H](CO)[C@H](O)c1ccc([N+](=O)[O-])cc1)C(Cl)Cl [Chloramphenicol]
100% | CNC(C)C1CCC(N)C(OC2C(N)CC(N)C(OC3OCC(C)(O)C(NC)C3O)C2O)O1 (stereo not shown) [Gentamicin]
<0.10% | [H]/N=C(/N)N[C@H]1[C@H](O)[C@@H](O)[C@H](O[C@@H]2O[C@@H](C)[C@](O)(C=O)[C@H]2O[C@@H]2O[C@@H](CO)[C@H](O)[C@@H](O)[C@@H]2NC)[C@@H](N/C(N)=N\[H])[C@@H]1O [Streptomycin]
<0.10% | NC[C@H]1O[C@H](O[C@H]2[C@H](O)[C@@H](O[C@H]3O[C@H](CO)[C@@H](O)[C@H](N)[C@H]3O)[C@H](N)C[C@@H]2N)[C@H](O)[C@@H](O)[C@@H]1O [kanamycin]
<0.10% | Neomycin

These compounds were tested on anti-GEN scFv-AP fusion protein (assay: direct competitive ELISA). Details: dcELISA, AP substrate p-nitrophenyl phosphate, OD 405 nm.
Assay type: binding, murine

IC50 | Compound
7.693 ng/mL (≈ 0.0161 µM) | CNC(C)C1CCC(N)C(OC2C(N)CC(N)C(OC3OCC(C)(O)C(NC)C3O)C2O)O1 (stereo not shown) [Gentamicin]
